A short description of the series: Riboflavin plasma pharmacokinetics and bioavailability after IV bolus, oral solution or GRDF. In kind it is in vivo, Beagle dogs. To be noted: for log-terminal slope of plasma riboflavin concentration: 100 mg riboflavin-5-phosphate, dogs n=6. Here is the method: Each dog received the drug by each of these modes, with at least one-week washout period between every phase of the study.
Following each administration blood samples (4 ml) were collected into 5 ml heparinized test tubes wrapped in aluminum foil (to protect from light), for modes (1) and (2) at times 0, 0.25, 0.5, 1, 1.5, 2, 2.5, 3, 3.5, 4, 6, 8, 11, 24 hours, and for mode (3) at times 0, 0.5, 1, 1.5, 2, […], 3, 4, 6, 9, 12, 15, 18, 21, 24, 27, 30, 33, 36 and 48 hours. Plasma was separated following centrifugation (4000 rpm for 10 minutes), and stored at −20° C. pending analysis.
Riboflavin plasma concentrations were determined by an HPLC method as follows: 100 μl trichloroacetic acid (20%) was mixed with 300 μl of a plasma sample. Following centrifugation of the mixture (13,000 rpm for 10 minutes) the supernatant was separated and incubated for 10 min at 85° C. After additional centrifugation (13,000 rpm for 10 minutes) 60 μl of the solution were injected to C18 HPLC column, with mobile phase that consisted of 15% acetonitrile in solution A (10 mmol potassium dihydrogen phosphate/L and 5 mmol hexanesulfonic acid/L, brought to a pH of 3 with orthophosphoric acid) at a flow rate of 1 ml/min. A spectrofluorometric detector set at 445 nm for excitation wavelength and 530 nm for emission wavelength detected the drug. Drug concentrations were determined with appropriate standard curves.

Each structure is given as a SMILES string.

`Cc1cc2nc3c(=O)[nH]c(=O)nc-3n(C[C@H](O)[C@H](O)[C@H](O)CO)c2cc1C` [riboflavin]: the bioavailability (Beagle, dog, plasma, 100 mg, oral administration (oral solution), dogs, read-out: absolute bioavailability of riboflavin) came out at 5.8 ± 2.2%. Moreover, the “rate of riboflavin elimination” value (concluded from iv and PO administration, dogs) came to 0.4 h⁻¹. Besides, the “log-terminal slope of plasma riboflavin concentration” value worked out at 0.44±0.13 hr^−1 (intravenous bolus) and 0.35±0.14 hr^−1 (oral solution).

What is called bioavailability is dose-corrected exposure relative to a reference, in per cent.

These data come from patent US6685962B2, “Gastroretentive controlled release pharmaceutical dosage forms” (priority 1999, dated 2004).
